Results reported in PMC3005334 (Cell, 2010).

Experiments:
[1] = system: 21 ergosterol biosynthetic proteins (Erg proteins); conditions: of 21 Erg enzymes, above the control
[2] = biological target: T1, Erg3 (Saccharomyces cerevisiae, UniProt P32353); type: binding; conditions: in vivo bound, LC-MS; known substrate
T1 sequence (P32353 1-365): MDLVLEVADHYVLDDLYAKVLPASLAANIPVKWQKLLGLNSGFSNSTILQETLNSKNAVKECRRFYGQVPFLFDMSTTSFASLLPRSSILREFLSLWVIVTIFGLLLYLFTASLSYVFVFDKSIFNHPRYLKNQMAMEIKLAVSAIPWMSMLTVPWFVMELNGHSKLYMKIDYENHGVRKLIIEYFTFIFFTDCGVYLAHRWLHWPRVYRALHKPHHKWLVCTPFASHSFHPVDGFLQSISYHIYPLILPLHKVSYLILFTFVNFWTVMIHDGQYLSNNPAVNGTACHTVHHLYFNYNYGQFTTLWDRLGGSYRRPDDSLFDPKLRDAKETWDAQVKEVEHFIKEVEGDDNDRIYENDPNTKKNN

[3] = biological target: T2, Erg1 (Saccharomyces cerevisiae, UniProt P32476); type: binding; conditions: in vivo bound, LC-MS
T2 sequence (P32476 1-496): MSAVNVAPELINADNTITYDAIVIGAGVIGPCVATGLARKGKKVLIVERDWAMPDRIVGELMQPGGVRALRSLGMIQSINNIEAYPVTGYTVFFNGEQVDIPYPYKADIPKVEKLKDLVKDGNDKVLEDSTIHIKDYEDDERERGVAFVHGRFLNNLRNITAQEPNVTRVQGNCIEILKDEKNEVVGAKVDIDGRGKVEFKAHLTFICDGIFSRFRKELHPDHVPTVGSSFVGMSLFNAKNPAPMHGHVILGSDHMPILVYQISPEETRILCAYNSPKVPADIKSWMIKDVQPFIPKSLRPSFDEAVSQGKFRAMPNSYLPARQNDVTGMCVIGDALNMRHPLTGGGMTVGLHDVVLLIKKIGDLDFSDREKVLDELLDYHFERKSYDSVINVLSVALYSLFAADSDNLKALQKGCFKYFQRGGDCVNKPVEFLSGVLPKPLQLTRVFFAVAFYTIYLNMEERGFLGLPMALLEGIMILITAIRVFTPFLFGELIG

[4] = system: ypk1Δ cells; experiment: Growth of kinase deletion strain in the presence of ergosterol inhibitor; type: cell-based, Saccharomyces cerevisiae; conditions: different concentrations of inhibitor, cell density
[5] = system: ypk1Δ cells; conditions: ref Gupta et al., 2003; Hillenmeyer et al., 2008; cited from earlier work

C=C(CC[C@@H](C)[C@H]1CC[C@H]2C3=CC[C@H]4C[C@@H](O)CC[C@]4(C)[C@H]3CC[C@]12C)C(C)C [episterol]
number of Erg proteins the metabolite co-purified with [1]: 3
binding to Erg3 [2]: bound

CC(C)=CCC/C(C)=C/CC/C(C)=C/CC/C=C(\C)CC/C=C(\C)CC[C@@H]1OC1(C)C [(S)-2,3-epoxysqualene]
association with Erg1 among the 21 Erg proteins [3]: specifically associated only with Erg1

C[C@@H]1[C@H](O)[C@@H](C)/C=C/C=C/CC/C=C/C=C/C=C/C=C/C(O[C@H]2O[C@H](C)[C@@H](O)[C@H](N)[C@@H]2O)CC2O[C@](O)(CC(O)C(O)CCC(O)CC(O)CC(O)CC(=O)O[C@H]1C)CC(O)C2C(=O)O (stereo partly shown) [nystatin]
growth of ypk1Δ cells [4]: sensitive
sensitivity of yeast strains lacking Ypk1 [5]: sensitive

CC(C)=CCC[C@@H](C)[C@H]1CC[C@@]2(C)C3=C(CC[C@]12C)[C@@]1(C)CC[C@H](O)C(C)(C)[C@@H]1CC3 [lanosterol]
number of Erg proteins the metabolite co-purified with [1]: 5

CC(C)=CCC[C@@H](C)[C@H]1CC[C@H]2C3=C(CC[C@]12C)[C@@]1(C)CCC(=O)C[C@@H]1CC3 [5α-cholesta-8,24-dien-3-one]
association with Erg1 among the 21 Erg proteins [3]: specifically associated only with Erg1
